Data set [1] deals with hypoxia-induced pulmonary hypertension mouse model. As to the kind of experiment: Hypoxia-induced pulmonary hypertension mouse model (RVSP, right ventricular hypertrophy). The data set is classed as in vivo. The conditions noted are these: 10% O2 hypoxia, day 28. The protocol: Eight-week-old male C57BL6/J mice (n=8 per group) were administered sanguinarine (5 mg/kg/day, daily for 28 days, oral administration). A product available from SSX (Cat. No. 1845, Sanguinarine Chloride 10 mg) was used as sanguinarine. A preparation method for a test solution for a treatment group was as follows: sanguinarine was first dissolved at 100 μg/μl in 100% DMSO and the solution was further dissolved in phosphate buffered saline (PBS) so that the final concentration of sanguinarine was 1 μg/μl. A test solution for a control group was prepared by dissolving DMSO at the same concentration in PBS (1% DMSO).
From the test starting day, the mice were bred under a 10% O2 hypoxic environment to generate a hypoxia-induced pulmonary hypertension mouse model. From the same day, the test solutions for the control group and the treatment group were directly administered into the stomachs of the mice once daily through the use of a probe for mice. Regarding doses, the mice were measured for their body weights daily during a test period, and doses were calculated separately for the mice so as to achieve 5 mg/kg/day.
An administration period (=hypoxic breeding period) was 28 days.
After daily administration for 28 days, pulmonary hemodynamics and right ventricular hypertrophy were assessed at the end point (on day 28 after the start of hypoxic stimulation). The assessment of pulmonary hemodynamics was performed by directly measuring right ventricular systolic pressure (RVSP) with a pressure measurement catheter (Transonic Scisense) inserted into the right jugular vein. In addition, the assessment of right ventricular hypertrophy was performed by measuring right ventricular free wall (RV) weight in a dissected heart tissue to calculate its ratio to left ventricle plus septum (LV+Septum) weight (RV/(LV+Septum)). RV/(LV+Septum) serves as an indicator of right ventricular hypertrophy. A larger numerical value for RV/(LV+Septum) indicates a higher degree of right ventricular hypertrophy. In addition, in order to assess pulmonary vascular remodeling, staining for α-smooth muscle actin (α-SMA) in a lung tissue section was performed on day 28. Pulmonary vascular remodeling was assessed by performing immunostaining for α-smooth muscle actin (α-SMA) in a lung tissue section and quantitatively assessing the extent of muscularization (classified into three stages, i.e., non-muscularization, partial muscularization, and full muscularization) of α-SMA-positive distal pulmonary arteries. Specifically, in each section, about 100 pulmonary arteries having diameters of from 20 μm to 70 μm were each assessed for a double elastic lamina. In this assessment, a pulmonary artery in which a double elastic lamina including an internal elastic lamina and an external elastic lamina was visible for less than 50% of the entire periphery of the pulmonary artery was considered non-muscularized, a pulmonary artery in which the double elastic lamina was visible for 50% or more and less than 100% of the entire periphery of the pulmonary artery was considered partially muscularized, and a pulmonary artery in which the double elastic lamina was visible throughout the entire periphery of the pulmonary artery was considered fully muscularized.
Eight-week-old male C57BL6/J mice (n=8 per group) were administered cinobufotalin (5 mg/kg/day, daily for 28 days, intraperitoneal administration). A product available from Sigma (Cat. No. C1147-10MG, Cinobufotalin 10 mg) was used as cinobufotalin. A preparation method for a test solution for a treatment group was as follows: cinobufotalin was first dissolved at 30 μg/μl in 100% DMSO and the solution was further dissolved in PBS so that the final concentration of cinobufotalin was 0.3 μg/μl. A test solution for a control group was prepared by dissolving DMSO at the same concentration in PBS (1% DMSO). […]

The subject of data set [2] is selenoprotein P protein. The experiment in a line: Western blotting of selenoprotein P protein in lungs of hypoxia-induced pulmonary hypertension mice. To be noted: C57BL/6 mice, 5 mg/kg/day oral, daily for 28 days, 10% hypoxia. Format: in vivo, mouse. The protocol: In addition, regarding sanguinarine, C57BL/6 mice (n=8 per group) were administered sanguinarine (5 mg/kg/day, daily for 28 days, oral administration). At the same time, the mice were bred under a 10% hypoxic environment. Thus, a hypoxia-induced pulmonary hypertension mouse model was generated and investigated.
In general terms: In western blotting, separated proteins are transferred to a membrane and probed.

Data set [3] has as its system Sugen/hypoxia rat model. The experiment in a line: Sugen/hypoxia-induced pulmonary hypertension rat model (RVSP, RVH). Format: in vivo. To be noted: 5 mg/kg oral for 28 days, started day 21 after hypoxia+SU5416. As for the experimental part: In this test, littermates or vehicle treatment groups were used as controls. A Sugen/hypoxia-induced hypertension rat model was used to assess pulmonary hypertension (PH) (Non-patent Literature 4). In order to assess the development of pulmonary hypertension, right ventricular systolic pressure (RVSP) and right ventricular hypertrophy (RVH) were measured (Non-patent Literatures 4 to 6).
For right heart catheterization, a 1.4-F (for rats) pressure measurement catheter (Transonic Scisense) was inserted into the right jugular vein and advanced into the right ventricle to measure RVSP (Non-patent Literature 7).
In the Sugen/hypoxia model, rats (Sprague-Dawley, male, 7- to 10-week-old) were injected subcutaneously with a VEGF-receptor inhibitor SU5416 (Sigma-Aldrich, St Louis, Mo.) (20 mg per kg body weight) under isoflurane anesthesia and were then exposed to hypoxia (10% O2) for 3 weeks. […] All data were analyzed using the PowerLab data acquisition system (AD Instruments, Bella Vista, Australia) and were averaged over 50 sequential beats (Non-patent Literatures 4 to 6).
Formaldehyde-fixed dry hearts were dissected and the right ventricular free wall (RV) was removed from the left ventricle (LV) and septum. The ratio of right ventricular free wall (RV) weight to left ventricle plus septum (LV+Septum) weight [RV/(LV+S)] was measured to assess the extent of RVH (Non-patent Literature 4). […]

Data set [4] relates to SeP. As to the kind of experiment: SeP protein levels in lungs of Sugen/hypoxia rats. Format: in vivo, rat. The conditions noted are these: 5 mg/kg oral for 28 days, hypoxia+SU5416 rats. As for the experimental part:
(§1) Rats (Sprague-Dawley, male, 7- to 10-week-old) were injected subcutaneously with a VEGF-receptor inhibitor SU5416 (Sigma-Aldrich) (20 mg per kg body weight) under isoflurane anesthesia and were then exposed to hypoxia (10% O2) for 3 weeks (hypoxia+SU5416). On day 21, the rats were randomized to be orally administered sanguinarine (5 mg per kg body weight) or vehicle under normoxia (21% O2) for 4 weeks. The vehicle administration group is expressed as vehicle controls. In addition, rats injected with saline on day 1 and exposed to normoxia for 7 weeks were used as (normoxic) controls. […] On day 49, the rats were anesthetized with isoflurane (1.0%) to measure RVSP, RVH, and pulmonary vascular remodeling. Thus, the development of PH was assessed.
FIG. 10(D) includes an image and graph for showing quantification of SeP protein levels in normoxic control rats or hypoxia+SU5416 rats with or without sanguinarine treatment. Data represent the mean±SEM. *p<0.05. Comparisons of parameters were performed with one-way or two-way ANOVA and Tukey's HSD test for multiple comparisons.

Data set [5] is described as follows: Body weight and food consumption in Sugen/hypoxia rats. The data set is classed as in vivo, rat. The conditions noted are these: 5 mg/kg oral for 28 days. The protocol:
as §1
FIG. 10(B) is a graph for showing the time-course of body weight from the starting point of administration of sanguinarine or vehicle for 4 weeks in Sugen/hypoxia rats (n=12). Data represent the mean±SEM.

The mark [6] stands for this setting: 5 mg/kg/day intraperitoneal, daily for 28 days.
Setting [7] is: 1 mg/kg/day intraperitoneal, alternate days for 28 days.
The mark [8] stands for this setting: 5 mg/kg/day oral, daily for 28 days.

SMILES strings stand for the structures. “Also recorded” adds a separate entry of the source.

With `CC(=O)OC1C(c2ccc(=O)oc2)C2(C)CCC3C(CCC4(O)CC(O)CCC34C)C23OC13` [cinobufotalin, [(1R,2R,2aR,3aS,5aS,7S,9aR,11aR)-5a,7-dihydroxy-9a,11a-dimethyl-1-(2-oxo-2H-pyran-5-yl)hexadecahydronaphtho[1′,2′:6,7]indeno[1,7a-b]oxiren-2-yl acetate]], in data set [1] (setting [6]), the “right ventricular hypertrophy (RV/(LV+Septum)) vs control group” value is on record as “significantly reduced” and the “right ventricular systolic pressure vs control group” value is “significantly reduced”.
In the case of `COC(=O)[C@]1(C)CC[C@]2(C)CC[C@]3(C)C4=CC=C5C(=CC(=O)C(O)=C5C)[C@]4(C)CC[C@@]3(C)[C@@H]2C1` [pristimerin, methyl (2R,4aS,6aS,12bR,14aS,14bR)-10-hydroxy-2,4a,6a,9,12b,14a-hexamethyl-11-oxo-1,2,3,4,4a,5,6,6a,11,12b,13,14,14a,14b-tetradecahydropicene-2-carboxylate], in data set [1] (setting [7]), the “right ventricular hypertrophy (RV/(LV+Septum)) vs control group” value is listed as “significantly reduced” and the “right ventricular systolic pressure vs control group” value is “significantly reduced”.
`C[n+]1cc2c3c(ccc2c2ccc4cc5c(cc4c21)OCO5)OCO3` [sanguinarine]: the “selenoprotein P protein expression in the lungs vs control” value in data set [2] is on record as “significantly suppressed”. Further, in data set [1] (setting [8]), the “right ventricular hypertrophy (RV/(LV+Septum)) vs control group” value is reported as “significantly reduced” and the “right ventricular systolic pressure vs control group” value is reported as “significantly reduced”. Besides, in data set [3], the “RVH [RV/(LV+S)] vs vehicle controls” value was “reduced” and the “RVSP vs vehicle controls” value was “reduced”. The “SeP expression in the lungs” value in data set [4] is listed as “significantly reduced”. Further, in data set [5], the “influence on body weight vs vehicle control” value was “no significant differences; also recorded: no influence” and the “influence on food consumption vs vehicle control” value is on record as “no significant differences; also recorded: no influence”.

Values taken from patent publication US10624883B2, “Pulmonary hypertension preventative or therapeutic agent containing component exhibiting selenoprotein P activity-inhibiting effect” (priority 2016, dated 2020).
